The values that follow are results of earlier work, collected in patent US7119205B2, “Thienopyridones as AMPK activators for the treatment of diabetes and obesity” (Abbott Laboratories, priority 2003, dated 2006).

The series concerns ob/ob and db/db mice. To be noted: 8 day administration.

Molecules are shown by their SMILES.

As for `NC(=O)c1ncn([C@@H]2O[C@H](CO)[C@@H](O)[C@H]2O)c1N` [AICAR], the “reduction of blood glucose” value is recorded as 35%.
